In US6399617B1, “Use” (Biovitrum AB, priority 2000, dated 2002):

Assays:
[1] = Determination of plasma concentration (free plasma concentration at steady state); assay type: in vivo, mouse; settings: ob/ob mice, subcutaneous continuous infusion
Protocol: The weights of the food pellets are measured at 5 p.m. and at […]. for two days before (baseline) and one day after the implantation of the osmotic minipumps. The weighing is performed with a computer assisted Mettler Toledo PR 5002 balance. Occasional spillage is corrected for. At the end of the study the animals are killed by neck dislocation and trunk blood sampled for later analysis of plasma drug concentrations.
The plasma sample proteins are precipitated with methanol, centrifuged and the supernatant is transferred to HPLC vials and injected into the liquid chromatography/mass spectrometric system. The mass spectrometer is set for electrospray positive ion mode and Multiple Reaction Monitoring (MRM with the transition m/z 316⇄221).
A linear regression analysis of the standards forced through the origin is used to calculate the concentrations of the unknown samples.

ob/ob mice = assay: Effect of compounds on food intake in ob/ob mice (15 h food consumption during subcutaneous minipump infusion); assay type: in vivo, mouse; settings: subcutaneous continuous infusion
Protocol: Obese (ob/ob) mouse is selected as the primary animal model for screening as this mutant mouse consumes high amounts of food resulting in a high signal to noise ratio. To further substantiate and compare efficacy data, the effect of the compounds on food consumption is also studied in wild type (C57BL/6J) mice. The amount of food consumed during 15 hours of infusion of compounds is recorded.
Male mice (obese C57BL/6JBom-Lep^ob and lean wild-type C57B1/6JBom; Bomholtsgaard, Denmark) 8-9 weeks with an average body weight of 50 g (obese) and 25 g (lean) are used in all the studies. The animals are housed singly in cages at 23±1° C., 40-60% humidity and have free access to water and standard laboratory chow. The 12/12-h light/dark cycle is set to lights off at 5 p.m. The animals are conditioned for at least one week before start of study.
The test compounds are dissolved in solvents suitable for each specific compound such as cyclodextrin, cyclodextrin/methane sulfonic acid, polyethylene glycol/methane sulfonic acid, or saline. Fresh solutions are made for each study. […] The purity of the test compounds is of analytical grade.
The animals are weighed at the start of the study and randomized based on body weight. Alzet osmotic minipumps (Model 2001D; infusion rate 8 μl/h) are used and loaded essentially as recommended by the Alzet technical information manual (Alza Scientific Products, 1997; Teeuwes and Yam, 1976). Continuous subcutaneous infusion with 24 hours duration is used. The minipumps are either filled with different concentrations of test compounds dissolved in vehicle or with only vehicle solution and maintained in vehicle pre-warmed to 37° C. […]
The weights of the food pellets are measured at 5 p.m. and at 8 p.m. for two days before (baseline) and one day after the implantation of the osmotic minipumps. […]
Food consumption for 15 hours is measured for the three consecutive days and the percentage of basal level values is derived for each animal from the day before and after treatment. The values are expressed as mean±SD and mean±SEM from eight animals per dose group. […]

Compound: COc1ccc(NS(=O)(=O)c2sc3ccc(Cl)cc3c2C)cc1N1CCNCC1.Cl [SB-271046, 5-Chloro-3-methyl-benzo-[b]thiophene-2-sulphonic acid (4-methoxy-3-piperazin-yl-phenyl)-amide monohydrochloride]
- Free plasma concentration at the steady state giving the effect ([1]; 10 mg/kg/day): 0.006
- Free plasma concentration at the steady state giving the effect ([1]; 30 mg/kg/day): 0.019
- Free plasma concentration at the steady state giving the effect ([1]; 50 mg/kg/day): 0.034
- reduction of food intake compared to the basal level of food intake (ob/ob mice; 10 mg/kg/day): 45%
- reduction of food intake compared to the basal level of food intake (ob/ob mice; 30 mg/kg/day): 60%
- reduction of food intake compared to the basal level of food intake (ob/ob mice; 50 mg/kg/day): 77%
